Results published in article PMC4965013, “Open Source Drug Discovery with the Malaria Box Compound Collection for Neglected Diseases and Beyond” (PLoS Pathogens, 2016).
Read-outs that look alike come from different tables or passages of the source.

Legend:
P. falciparum = assay: EC50 listed in S2 Table Metabolomics (used to set the concentration tested); type: cell-based; conditions: Plasmodium falciparum; EC50 used for Factor_XEC50 in metabolomics; read-out: EC50_nM
[1] = tested on: P. falciparum 3D7 trophozoites; assay: Metabolomic fingerprint profiling LC-MS; type: cell-based, Plasmodium falciparum; parameters: UDP-D-glucose / ADP-D-glucose: unit not given here; conditions: for Acetyllysine / N-acetyl-L-ornithine / N-carbamoyl-L-aspartate / NADPH / dAMP / dCMP / dTDP / dTMP / dTTP / dihydroorotate / orotate / DLH / DLS/SDL/SID / PD / PEE / PVNF / 3-phosphoglycerate / ADP-D-glucose / ATP / CDP / D-sedoheptulose-1/7-phosphate / FAD / GMP / NAD+ / NADP+ / Octoluse Bisphosphate / Pyroglutamic acid / UDP-D-glucose / UDP-D-glucuronate / UDP-N-acetyl-glucosamine / UDP / UMP / UTP / a-ketoglutarate / citrate/isocitrate / cytidine / dATP / dGMP/AMP / fumarate / glucose-1/6-phosphate / glycerate / guanine / guanosine / hypoxanthine / indole / inosine / nicotinate / ornithine / phosphoenolpyruvate / pyruvate / ribose-phosphate / sarcosine/alanine / sn-glycerol-3-phosphate / succinate/methylmalonic acid / uridine / xanthosine: S2 Table Metabolomics; for Acetyllysine: metabolite Acetyllysine; for N-acetyl-L-ornithine: metabolite N-acetyl-L-ornithine; for N-carbamoyl-L-aspartate: metabolite N-carbamoyl-L-aspartate; for NADPH: metabolite NADPH; for dAMP: metabolite dAMP; for dCMP: metabolite dCMP; for dTDP: metabolite dTDP; for dTMP: metabolite dTMP; for dTTP: metabolite dTTP; for dihydroorotate: metabolite dihydroorotate; for orotate: metabolite orotate; for DLH: peptide DLH; for DLS/SDL/SID: peptide DLS/SDL/SID; for PD: peptide PD; for PEE: peptide PEE; for PVNF: peptide PVNF; for 3-phosphoglycerate: metabolite 3-phosphoglycerate; for ADP-D-glucose: metabolite ADP-D-glucose; for ATP: metabolite ATP; for CDP: metabolite CDP; for CDP / D-sedoheptulose-1/7-phosphate / GMP / Octoluse Bisphosphate / UDP / UMP / UTP / citrate/isocitrate / dGMP/AMP / fumarate / glucose-1/6-phosphate / glycerate / guanine / guanosine / inosine / pyruvate / sarcosine/alanine / succinate/methylmalonic acid / uridine / xanthosine: change in metabolite level after compound treatment; for D-sedoheptulose-1/7-phosphate: metabolite D-sedoheptulose-1/7-phosphate; for FAD: metabolite FAD; for GMP: metabolite GMP; for NAD+: metabolite NAD+; for NADP+: metabolite NADP+; for Octoluse Bisphosphate: metabolite Octoluse Bisphosphate; for Pyroglutamic acid: metabolite Pyroglutamic acid; for UDP-D-glucose: metabolite UDP-D-glucose; for UDP-D-glucuronate: metabolite UDP-D-glucuronate; for UDP-N-acetyl-glucosamine: metabolite UDP-N-acetyl-glucosamine; for UDP: metabolite UDP; for UMP: metabolite UMP; for UTP: metabolite UTP; for a-ketoglutarate: metabolite a-ketoglutarate; for citrate/isocitrate: metabolite citrate/isocitrate; for cytidine: metabolite cytidine; for dATP: metabolite dATP; for dGMP/AMP: metabolite dGMP/AMP; for fumarate: metabolite fumarate; for glucose-1/6-phosphate: metabolite glucose-1/6-phosphate; for glycerate: metabolite glycerate; for guanine: metabolite guanine; for guanosine: metabolite guanosine; for hypoxanthine: metabolite hypoxanthine; for indole: metabolite indole; for inosine: metabolite inosine; for 2_3-Diphosphoglyceric acid / 4-phosphopantothenate / 6-phospho-D-gluconate / FMN / IMP / Pyrophosphate / Sedoheptoluse bisphosphate / cyclic-AMP / glutathione disulfide / lactate / myo-inositol: metabolite level change after treatment; for nicotinate: metabolite nicotinate; for ornithine: metabolite ornithine; for phosphoenolpyruvate: metabolite phosphoenolpyruvate; for pyruvate: metabolite pyruvate; for ribose-phosphate: metabolite ribose-phosphate; for sarcosine/alanine: metabolite sarcosine/alanine; for sn-glycerol-3-phosphate: metabolite sn-glycerol-3-phosphate; for succinate/methylmalonic acid: metabolite succinate/methylmalonic acid; for uridine: metabolite uridine; for xanthosine: metabolite xanthosine
P. falciparum 3D7 = assay: [3H]-hypoxanthine growth inhibition, modified HCO3- or O2; type: cell-based; conditions: for IC50: Plasmodium falciparum
[2] = 3D7, read-out: P. falciparum 3D7 IC50 HCO3- (2g/L), standard media
[3] = 3D7, HCO3- reduced media, read-out: P. falciparum 3D7 IC50 HCO3- reduced

## CNCCCNc1ccnc2cc(Cl)ccc12 [MMV020500]
P. falciparum
  EC50: 82.2 nM
[1]
  Acetyllysine: -2.213
  N-acetyl-L-ornithine: -0.8185
  N-carbamoyl-L-aspartate: 0.6081
  NADPH: 0.8295
  dAMP: 1.814
  dCMP: 0.8961
  dTDP: 0.7101
  dTMP: 2.186
  dTTP: -0.2992
  dihydroorotate: 0.1598
  orotate: 0.0865
  DLH: -2.137
  DLS/SDL/SID: -0.7574
  PD: -1.597
  PEE: -0.2916
  PVNF: -1.612
  3-phosphoglycerate: 0.07452
  ADP-D-glucose: -0.08737
  ATP: -0.9785
  CDP: 0.5532
  D-sedoheptulose-1/7-phosphate: 1.176
  FAD: -0.249
  GMP: 1.138
  NAD+: 0.8214
  NADP+: -0.06525
  Octoluse Bisphosphate: -0.4524
  Pyroglutamic acid: 0.1099
  UDP-D-glucose: -0.02951
  UDP-D-glucuronate: -0.3318
  UDP-N-acetyl-glucosamine: 0.05445
  UDP: 0.8779
  UMP: 0.5345
  UTP: -0.9493
  a-ketoglutarate: 0.1415
  citrate/isocitrate: -0.9893
  cytidine: -0.1492
  dATP: -0.4735
  dGMP/AMP: 1.367
  fumarate: -0.1707
  glucose-1/6-phosphate: -0.009969
  glycerate: -0.6605
  guanine: 0.2615
  guanosine: -0.1451
  hypoxanthine: -0.2256
  indole: -0.03127
  inosine: 0.04049
  2_3-Diphosphoglyceric acid: -0.286
  4-phosphopantothenate: 0.7597
  6-phospho-D-gluconate: 0.1729
  FMN: 0.009843
  IMP: 0.8224
  Pyrophosphate: -0.4794
  Sedoheptoluse bisphosphate: -0.0186
  cyclic-AMP: 0.9961
  glutathione disulfide: -0.1428
  lactate: -0.3926
  myo-inositol: -0.6279
  nicotinate: 0.7754
  ornithine: -0.4966
  phosphoenolpyruvate: 0.07414
  pyruvate: -0.1857
  ribose-phosphate: -0.6716
  sarcosine/alanine: -0.5483
  sn-glycerol-3-phosphate: -0.4228
  succinate/methylmalonic acid: 0.4498
  uridine: -0.2827
  xanthosine: -0.8962
P. falciparum 3D7
  fold change (IC50reduced/IC50normal): 3.9
P. falciparum 3D7; [2]
  IC50: 40 nM
P. falciparum 3D7; [3]
  IC50: 155 nM

## COc1ccc(-c2nc(NC(=O)CS(=O)(=O)c3ccc(F)cc3)sc2C)cc1 [MMV665915]
P. falciparum
  EC50: 448 nM
[1]
  Acetyllysine: -0.1771
  N-acetyl-L-ornithine: -0.3059
  N-carbamoyl-L-aspartate: 0.053
  NADPH: 0.1215
  dAMP: -0.4653
  dCMP: -0.2866
  dTDP: 0.07665
  dTMP: 0.08902
  dTTP: -0.1721
  dihydroorotate: -0.4672
  orotate: -0.4189
  DLH: 0.071
  DLS/SDL/SID: -0.2498
  PD: -0.3229
  PEE: -0.02112
  PVNF: 0.02436
  3-phosphoglycerate: -0.875
  ADP-D-glucose: -0.2338
  ATP: -0.08026
  CDP: 0.2353
  D-sedoheptulose-1/7-phosphate: 0.2732
  FAD: -0.2366
  GMP: -0.6644
  NAD+: -0.2604
  NADP+: -0.1454
  Octoluse Bisphosphate: -0.3427
  Pyroglutamic acid: 0.2622
  UDP-D-glucose: -0.2684
  UDP-D-glucuronate: -0.1851
  UDP-N-acetyl-glucosamine: -0.3241
  UDP: 0.1227
  UMP: -0.7313
  UTP: -0.06326
  a-ketoglutarate: -0.1843
  citrate/isocitrate: 0.1306
  cytidine: -0.25
  dATP: -0.1264
  dGMP/AMP: -0.5258
  fumarate: -0.3392
  glucose-1/6-phosphate: -0.6162
  glycerate: -0.5026
  guanine: -0.3726
  guanosine: -0.4353
  hypoxanthine: 0.151
  indole: 0.2601
  inosine: -0.1084
  2_3-Diphosphoglyceric acid: -0.3692
  4-phosphopantothenate: -0.3105
  6-phospho-D-gluconate: -0.535
  FMN: -0.2195
  IMP: -0.3295
  Pyrophosphate: -0.0001746
  Sedoheptoluse bisphosphate: -0.2854
  cyclic-AMP: -0.3638
  glutathione disulfide: -0.4248
  lactate: -0.1885
  myo-inositol: -0.6665
  nicotinate: -0.4616
  ornithine: -0.3065
  phosphoenolpyruvate: -0.5464
  pyruvate: -0.3441
  ribose-phosphate: -0.3706
  sarcosine/alanine: -0.5111
  sn-glycerol-3-phosphate: -0.2801
  succinate/methylmalonic acid: -0.2666
  uridine: -0.2088
  xanthosine: -0.3176
P. falciparum 3D7
  fold change (IC50reduced/IC50normal): 2.4
P. falciparum 3D7; [2]
  IC50: 192 nM
P. falciparum 3D7; [3]
  IC50: 464 nM
